In patent publication US20110009266A1, “Herbicidal Compositions Comprising Pyroxasulfone” (BASF SE, priority 2008, published 2011):
Where two headings read alike, the source gives them in different places.

Assays:
Type in all cases: in vivo
[1] = system: ALOMY (Alopecurus myosuroides, blackgrass); assay: greenhouse herbicidal activity on Alopecurus myosuroides; conditions: Post-Emergence, 20 DAT
From the text: (§1) For the post-emergence treatment, the test plants were first grown to a height of 3 to 20 cm, depending on the plant habit, and only then treated. Here, the herbicidal compositions were suspended or emulsified in water as distribution medium and sprayed using finely distributing nozzles.
(§2) The respective herbicides A and/or safener were formulated as 10% by weight strength suspension concentrate and introduced to the spray liquor with the amount of solvent system used for applying the active compound. Herbicide B and/or safener were used as commercially available formulations and introduced to the spray liquor with the amount of solvent system used for applying the active compound. In the examples, the solvent used was water. […]
(§3) The test period extended over 21 days. During this time, the plants were tended, and their response to the treatments with active compound was evaluated. […]
(§4) The value E, which is to be expected if the activity of the individual compounds is just additive, was calculated using the method of S. R. Colby (1967) “Calculating synergistic and antagonistic responses of herbicide combinations”, Weeds 15, p. […]
(§5) If the value observed in this manner is higher than the value E calculated according to Colby, a synergistic effect is present.

[2] = system: STEME (Stellaria media, chickweed); assay: greenhouse herbicidal activity on Stellaria media; conditions: Post-Emergence; for inhibition at 50 g/ha: Stellaria media
From the text: as §1
(§6) The respective herbicides A and/or safener were formulated as 10% by weight strength suspension concentrate and introduced to the spray liquor with the amount of solvent system used for applying the active compound. Herbicide B and/or safener were used as commercially available formulations and introduced to the spray liquor with the amount of solvent system used for applying the active compound. In the examples, the solvent used was water.
(§7) Picolinafen was used as a commercial wettable granule formulation having an active ingredient content of 75% by weight.
(§8) 4-(3-trifluoromethylphenoxy)-2-(4-trifluoromethylphenyl)-pyrimidine was used as an aqueous suspension concentrate having an active ingredient concentration of 200 g/l.
(§9) The test period extended over 21 days. During this time, the plants were tended, and their response to the treatments with active compound was evaluated.
(§10) The evaluation for the damage caused by the chemical compositions was carried out using a scale from 0 to 100%, compared to the untreated control plants. Here, 0 means no damage and 100 means complete destruction of the plants.
(§11) The value E, which is to be expected if the activity of the individual compounds is just additive, was calculated using the method of S. R. Colby (1967) “Calculating synergistic and antagonistic responses of herbicide combinations”, Weeds 15, p. 22 ff.
(§12) where X=effect in percent using herbicide A at an application rate a; • Y=effect in percent using herbicide B at an application rate b; • E=expected effect (in %) of A+B at application rates a+b.
as §5

[3] = system: VERPE (Veronica persica, field speedwell); assay: greenhouse herbicidal activity on Veronica persica; conditions: Post-Emergence, 20 DAT
From the text: as §1, §2, §3, §4, §5

[4] = system: LOLMU (Lolium multiflorum, italian ryegrass); assay: greenhouse herbicidal activity on Lolium multiflorum; conditions: Post-Emergence; for inhibition at 13 g/ha / inhibition at 50 g/ha: Lolium multiflorum; for inhibition at 50 g/ha: 50 g ai/ha
From the text: as §1, §6, §7, §8, §9, §10, §11, §12, §5

[5] = system: GALAP (Galium aparine, cleaver); assay: greenhouse herbicidal activity on Galium aparine; conditions: Post-Emergence, 20 DAT
From the text: as §1, §6, §8, §9, §10, §11, §12, §5

[6] = system: PHACA (Phalaris canariensis, canarygrass); assay: greenhouse herbicidal activity on Phalaris canariensis; conditions: Post-Emergence; for inhibition at 50 g/ha / inhibition at 100 g/ha: Phalaris canariensis; for inhibition at 50 g/ha: 50 g ai/ha; for inhibition at 100 g/ha: 100 g ai/ha
From the text: as §1, §6, §7, §9, §10, §11, §12, §5

[7] = 192 h, 8 DAT, read-out: observed % activity 8 DAT
[8] = 480 h, 20 DAT, read-out: observed % activity 20 DAT

FC(F)(F)c1ccc(-c2nccc(Oc3cccc(C(F)(F)F)c3)n2)cc1 [Compound B, 4-(3-trifluoromethylphenoxy)-2-(4-trifluoromethylphenyl)-pyrimidine]
observed activity in % destruction 20 days after treatment ([1]; 16 g ai/ha): 15%
observed activity in % destruction 20 days after treatment ([2]; 16 g ai/ha, 20 DAT): 95%
observed activity in % destruction 20 days after treatment ([2]; 31 g ai/ha, 20 DAT): 95%
observed activity in % destruction 20 days after treatment ([3]; 31 g ai/ha): 98%
observed activity in % destruction 20 days after treatment ([4]; 63 g ai/ha, 20 DAT): 50%
observed activity in % destruction 20 days after treatment ([4]; 125 g ai/ha, 20 DAT): 70%
observed activity in % destruction 20 days after treatment ([5]; 31 g ai/ha): 85%
observed activity in % destruction 20 days after treatment ([5]; 63 g ai/ha): 85%

O=C(Nc1ccc(F)cc1)c1cccc(Oc2cccc(C(F)(F)F)c2)n1 [picolinafen]
observed % activity 8 DAT ([2]; 13 g ai/ha, 8 DAT): 60%
observed % activity 20 DAT ([2]; 13 g ai/ha, 20 DAT): 90%
observed % activity 8 DAT ([6]; 13 g ai/ha, 8 DAT): 10%
observed % activity 20 DAT ([6]; 13 g ai/ha, 20 DAT): 30%
observed % activity 8 DAT ([4]; 25 g ai/ha, 8 DAT): 0%
observed % activity 20 DAT ([4]; 25 g ai/ha, 20 DAT): 20%

Cn1nc(C(F)(F)F)c(CS(=O)(=O)C2=NOC(C)(C)C2)c1OC(F)F [pyroxasulfone, 3-[5-(difluoromethoxy)-1-methyl-3-(trifluoromethyl)pyrazol-4-ylmethylsulfonyl]-4,5-dihydro-5,5-dimethyl-1,2-oxazole]
observed activity in % destruction 20 days after treatment ([1]; 100 g ai/ha): 90%
observed activity in % destruction 20 days after treatment ([2]; 25 g ai/ha, 20 DAT): 80%
observed activity in % destruction 20 days after treatment ([2]; 50 g ai/ha, 20 DAT (Table 2)): 85%
inhibition at 50 g/ha ([2]; 192 h, 50 g ai/ha, 8 DAT, read-out: observed % activity 8 DAT): 70%
inhibition at 50 g/ha ([2]; 480 h, 50 g ai/ha, 20 DAT, read-out: observed % activity 20 DAT): 85%
inhibition at 50 g/ha [6, 7]: 55%
inhibition at 100 g/ha [6, 7]: 60%
inhibition at 50 g/ha [6, 8]: 90%
inhibition at 100 g/ha [6, 8]: 90%
observed activity in % destruction 20 days after treatment ([3]; 25 g ai/ha): 60%
inhibition at 13 g/ha ([4]; 192 h, 13 g ai/ha, 8 DAT, read-out: observed % activity 8 DAT): 40%
inhibition at 50 g/ha [4, 7]: 50%
inhibition at 13 g/ha ([4]; 480 h, 13 g ai/ha, 20 DAT, read-out: observed % activity 20 DAT): 50%
inhibition at 50 g/ha [4, 8]: 85%
observed activity in % destruction 20 days after treatment ([4]; 13 g ai/ha, 20 DAT (Table 2)): 50%
observed activity in % destruction 20 days after treatment ([4]; 25 g ai/ha, 20 DAT (Table 2)): 75%
observed activity in % destruction 20 days after treatment ([5]; 25 g ai/ha): 90%
observed activity in % destruction 20 days after treatment ([5]; 50 g ai/ha): 90%
observed activity in % destruction 20 days after treatment ([5]; 100 g ai/ha): 95%
